Experimental data as given in paper PMC7238036, “An Interspecies Molecular and Functional Study of Organic Cation Transporters at the Blood-Brain Barrier: From Rodents to Humans” (Pharmaceutics, 2020).

Key:
BBB = details: cited from earlier work
[1] = system: primary human brain microvascular endothelial cells (BMVECs)
Experimental: BMVECs were obtained from isolated human brain microvessels and cultured in petri dishes in the presence of puromycin (P0), to avoid contamination from other cell types. BMVECs were later used in astrocyte-conditioned culture media for protein extraction, or for the establishment of a human BBB model to conduct permeability assays.
After BMVECs amplification, cells were seeded on inserts (Transwell, Corning, ThermoFisher, Les Ulis, France). […] Permeability studies using radiolabeled [^3H]-L-Phenylalanine (~4 nM) or [^3H]-MPP^+ (~6 nM) were performed on BMVECs once the establishment of a good BBB model was verified.

OCT1 and/or OCT2 = system: OCT1 and/or OCT2; design: method as in PMID 20477935; details: cited from earlier work

## C[n+]1ccc(-c2ccccc2)cc1 [[^3H]-MPP^+, 1-methyl-4-phenylpyridinium]
Luminal BBB; 2-month old mice, six strains
  differences in basal [3H]-MPP+ brain transport between the selected mouse strains: not evidenced
BBB; FVB (wild-type, Oct1/2−/−, Oct3−/−) and Swiss mice (+/- TEA)
  modification of [3H]-MPP+ brain transport: no modification

## N[C@@H](Cc1c[nH]c2ccccc12)C(=O)O [tryptophan]
[1]; tryptophan 5 mM, [3H]-L-phenylalanine ~4 nM, n = 3, p < 0.05
  effect of inhibitor on [3H]-L-phenylalanine uptake, apical to basolateral (SLC7A5): significant decrease

## CN1CC=C(c2ccccc2)CC1 [MPTP, 1-methyl-4-phenyl-1,2,3,6-tetrahydropyridine]
OCT1 and/or OCT2
  share of MPTP brain uptake accounted for by OCT1 and/or OCT2: more than 90%

## CC[N+](CC)(CC)CC [TEA, Tetraethylammonium]
Luminal BBB; TEA 30 mM co-perfusion, all rat and mouse strains tested
  effect of co-perfused inhibitor on [3H]-MPP+ brain extraction/clearance: remained unaltered
BBB; FVB Oct1−/− mice
  modification of [14C]-TEA brain transport: no modification
[1]; TEA 2 mM, [3H]-MPP+ ~6 nM, OCT1-3/MATE function
  effect of inhibitor on [3H]-MPP+ uptake, apical to basolateral: did not produce any significant decrease
